According to US20240041050A1, “CELL PENETRATING PEPTIDE MEDIATED RNA TRANSDUCTION WITHIN INSECT CELLS” (PIONEER HI-BRED INTERNATIONAL, INC., priority 2020, published 2024):
Peptide text beside a SMILES is read from it.

Tested on: Sf9 cells
Assay: CPP-mediated delivery of mCherry mRNA cargo into insect cells
Assay type: cell-based, Spodoptera frugiperda
Settings: complex of 75 μM unlabeled CPP and 10 μg mCherry mRNA, overnight
Text: Sample preparation and analysis methods were based on those previously reported (Jafari et al. (201 4) “Serum stability and physicochemical characterization of a novel amphipathic peptide C6M 1 for siRNA delivery”, PLoS One, 9(5), e97797; and Gillet et al. (2017) “Investigating Engineered Ribonucleoprotein Particles to Improve Oral RNAi Delivery in Crop Insect Pests”, Frontiers in Physiology, 8(256), doi: 10.3389/fphys.2017.00256). Reagents are described in Examples 1 and 2. Nanocomplex samples were prepared in one of several ways, depending on type of CPP, RNA, or assay. […] Reaction volumes added to cells were 6.38 μL CPP and 6.38 μL mRNA. Final optimal CPP concentration was assessed by amount of fluorescent signal apparent within cells. For insect cell-based assays with CPP-YFP·Cy3-dsRNA or CPP·dsRNA, first a complex formation solution was prepared in molecular biology-grade water containing 90 mg·mL^−1 maltose, 9 mg·mL^−1 mannitol, 392. 16 mM CaCI2, pH 7.0, and vacuum-filtered using Corning™ Disposable Vacuum Filter and Storage System containing a cellulose nitrate filter. Then, increasing amounts of CPP-YFP were added to Cy3-dsRNA, from a molar ratio (CPP-YFP:Cy3-dsRNA) of 1:4 through 8:1 and incubated protected from light at 25° C. for 90 minutes prior to assessment via gel shift and DLS. Reaction volumes added per cell well were comprised of 17 μL reaction solution, 1 μL CPP, 1 μL dsRNA, and 1 μL molecular biology grade water; reaction sizes for larger total volumes were increased in increments of 20 μL and component ratio was held constant to maintain an ionic strength of […]. Final optimal molar ratio selected for cell experiments were determined by increase of the apparent size of the Cy3-dsRNA band on a native agarose gel (FIG. 2A and FIG. 2B), and/or appearance and increase in size of the complex peak detected by a Zetasizer Ultra (Malvern Panalytical, Malvern, United Kingdom) DLS instrument (FIG. 2C). […] Final optimal BAPC1 concentration was assessed by amount of fluorescent signal apparent within cells. […]

For `N=C(N)NCCC[C@H](NC(=O)[C@H](Cc1c[nH]c2ccccc12)NC(=O)[C@H](CCCNC(=N)N)NC(=O)[C@@H](N)CS)C(=O)N[C@@H](Cc1c[nH]c2ccccc12)C(=O)N[C@@H](CCCCN)C(=O)N[C@@H](CS)C(=O)N[C@@H](CS)C(=O)N[C@@H](CCCCN)C(=O)N[C@@H](CCCCN)C(=O)O` [CyLoP-1, CRWRWKCCKK] (H-CRWRWKCCKK-OH; N-terminus and C-terminus assumed), the “fluorescent protein translated from delivered mCherry mRNA (fluorescent signal inside cells)” value was “Translation of mRNA into a functional fluorescent protein occurred”.
